According to patent US6518261B2, “Use of eugenol in combination with other chemopreventative agents as prophylaxis for cancers” (Oncology Sciences Corporation, priority 2000, dated 2003):

How the values were obtained:
[1] = test system: suspect cells; experiment: Cell cycle analysis; type: cell-based; conditions: cell cycle analysis data
Excerpt: Therefore induction of cell death pathway by 2-ME and growth inhibition by eugenol through a different pathway presents a tremendous new weapon for use in preventing and combating cancer.

[2] = test system: LNCaP cells; experiment: Cell growth by trypan blue exclusion cell counting, confirmed by cell proliferation assay kit; type: cell-based, human; conditions: 72 hours of treatment, FIG. 2
Method: These cells were treated with different concentrations of eugenol (0.5, 1, 3, 5 and 10 mM). Cell growth was monitored every 24 hours by counting the increase in the cell number using trypan blue exclusion assay.
Cells were treated with either eugenol (0.25, 0.5, 0.75 or 1 mM) or 2-ME (0.5, 1, 2 or 3 mM) or both (0.25, 0.5, 0.75 or 1 mM of eugenol along with 0.5 mM of 2-ME). Cell growth was measured following 72 hours of treatment as described above.

Row | SMILES | effect on cell cycle profile / mechanism of growth inhibition [1] | inhibition of growth of LNCaP cells ([2]; 0.5 mM of 2-ME) | inhibition of growth of LNCaP cells ([2]; 0.25 mM of eugenol)
1 | COc1cc2c(cc1O)CC[C@@H]1[C@@H]2CC[C@]2(C)[C@@H](O)CC[C@@H]12 [2-ME, 2-methoxyestradiol] | inducing apoptosis and blocking cells in G2/M phase | about 20% | 
2 | C=CCc1ccc(O)c(OC)c1 [eugenol] | without any significant alterations in the cells cycle profile |  | about 30%
